The values below come from patent publication US20190242876A1, “GENETICALLY ENCODED CELL DEATH INDICATORS AND METHODS OF USE” (The J. David Gladstone Institutes, A Testamentary Trust …, priority 2016, published 2019).

In series [1] the test system is Rat primary neurons. Description: KCl membrane depolarization of neurons expressing RGEDI-P2A-EGFP. The format is cell-based. To be noted: 10 mM KCl (FIG. 21D). The method, then:
FIG. 21A depicts representative images of individual neurons over the time course. […] Next, the RGEDI intensity was plotted as a percentage increase from baseline (t=0) (ie delta RGEDI/baseline RGEDI). Using the morphology as a readout, the time of death was determined for each neuron. […] FIG. 21D.

For series [2], the system named is rat primary cortical neurons. Description: Toxicity of neurodegenerative disease proteins in neurons, cumulative hazard from GEDI ratio. Type of series: cell-based. As to conditions: automated GEDI ratio, 8 time points. The method, then: Rat primary cortical neuron cultures were prepared from embryos (embryonic day 16-18) and co-transfected using Lipofectamine2000 (ThermoFisher Scientific, Carlsbad, Calif., USA) with 150 ng/well of hSyn1:mRuby-P2a-GCaMP (Addgene #50943) and either Htt^ex1-Q27 or Htt^ex1-Q97 (known to induce neurodegeneration) in a 96-well format. […] FIG. 17A. The GCaMP intensity was detected and plotted as a percentage increase from baseline (t=0) (i.e., delta GCaMP/baseline GCaMP). Using the morphology as a readout, the time of death was determined for each neuron.
To examine the changes in signal increase as a cell dies, rat primary cortical neurons expressing GCaMP6f, mRuby, and HttEx1-Q97 were examined overtime. […] Using time lapse imaging, it was observed that 0 out of 94,106 dead rat primary cortical neurons examined regenerated after elevated GEDI signal, indicating elevated GEDI signal is terminal. In addition, the ratio of GCaMP6f/mRuby signal from rat primary cortical neurons expressing HttEx1-Q97 and HttEx1-Q25 at 0, 24, 48, 72, 96, and 120 hours post transfection was determined. FIG. 1B, the horizontal line at 0.75 separates dead from live neurons. […] Similarly, human motor neurons differentiated from induced pluripotent stem cells were transfected with […] hSyn1:mRuby-P2a-GCaMP and imaged with robotic microscopy every 6 hours up to 12 hours. […]

In series [3] the test system is rat primary cortical neurons. Put plainly: Glutamate exposure of neurons expressing RGEDI, survival by GEDI ratio. As to conditions: within three hours of glutamate exposure. Type of series: cell-based. The source says:
Briefly, neurons expressing RGEDI were exposed to the neurotransmitter glutamate. […] Furthermore, features of neurons such as neurite area were identified as associated with neurons that are resistant to high Glutamate exposure. These studies indicate that GEDIs can be used for screening for drug resistant or drug sensitive cells and identifying physiological characteristics of those cells that may underlie their sensitivity or resistance.

Series [4] has as its system Rat primary neurons. Put plainly: RGEDI/EGFP ratio after NaN3-induced acute death of neurons. The format is cell-based. The method, then:
ANOVA Tukey's ***p<0.001, ns=not significant.
Rat primary neurons were transfected with hsyn1:RGEDI-P2A-EGFP as described above and imaged at DIV10. […] A non-linear regression was fit to the NaN3+Ca^2+ time course and a half-life of RGEDI/EGFP signal increase was determined to be 5 minutes and 50 seconds. […] ANOVA Tukey comparison to 0 minutes of each condition, *** p<0.001, **** p<0.0001. […] FIG. 3.

The test system of series [5] is motor neurons of zebrafish larvae. Description: Targeted neuronal ablation with MTZ in nitroreductase-expressing zebrafish. Type of series: in vivo. The procedure:
Briefly, zebrafish embryos were co-injected at 1-cell stage with mnx1:Gal4, UAS:GCaMP6f, and UAS:Nitroreductase-mCherry. Embryos were grown at 28.5° C. until 48 hours post fertilization (hpf), anaesthetized in tricaine, embedded in low-melting point agarose, and then imaged on a spinning disk confocal microscope. Images were acquired of the same motor neurons within the zebrafish at 0, 24 hours, and 48 hours after MTZ or DMSO was added to the media. Intensity of GCaMP6f was plotted as the change in fluorescence intensity from time point 0.
The GEDI reporter was also tested in skeletal muscle fiber. FIG. 13C. […] FIGS. 14A, 14B, and 22.

For the compound `[Cl-].[K+]` [KCl], the “excitation of RGEDI-P2A-EGFP signal” value in series [1] is listed as “failed to excite”.

In the case of “TDP43: neurodegenerative disease protein transfected into neurons”, in series [2], the “toxicity over time compared to control (cumulative hazard)” value is on record as “increased toxicity”.

As to `N[C@@H](CCC(=O)O)C(=O)O` [glutamate], in series [3], the neuronal death entry is “killed many of the cells”.

For the compound `[N-]=[N+]=[N-].[Na+]` [NaN3], the RGEDI/EGFP ratio entry in series [4] (2% NaN3 in NBM with ~2 mM Ca^2+, compared to saline) is “significantly increased”; in series [4] (NaN3, neurons washed 3x and incubated in Ca2+ free PBS) it was “did not show a significant increase”.

In the case of `Cc1ncc([N+](=O)[O-])n1CCO` [MTZ, metronidazole], in series [5] (24 and 48 hours after addition, zebrafish larvae motor neurons, NTR-mCherry), the GCaMP expression entry is recorded as “increased”. In series [5] (zebrafish neurons co-expressing NTR-mVenus, versus DMSO), the RGEDI-P2a-3XtagBFP signal entry was “signal increased”.

As to α-synuclein, in series [2], the “toxicity over time compared to control (cumulative hazard)” value was “increased toxicity”.
